In patent US6726940B2, “Use of at least one extract of the genus chrysanthemum for assisting skin and/or hair pigmentation” (Societe L'Oreal S.A., priority 1997, dated 2004):

Columns and labels:
[1] = test system: co-cultures of normal human keratinocytes/melanocytes; experiment: Modulation of melanogenesis: incorporation of 14C thiouracil in co-cultures of keratinocytes/melanocytes; format: cell-based; settings: NHK/NHM co-culture, three days treatment
Protocol: The modulator effect on melanogenesis of the extract obtained by Protocol 2 of Example 1 was tested on co-cultures of normal human keratinocytes/melanocytes according to the method described in the Patent FR 95 06491. The rate of synthesis of melanine is evaluated by the incorporation of thiouracil labelled with C^14. The synthesis of the proteins, determined by the incorporation of tritiated leucine, is taken as an indicator of cytotoxicity and of proliferation. The normal human keratinocytes (NHK) and the normal human melanocytes (NHM) are cultured from preputial skin. The two types of cells are proliferated and stored frozen. […] The proteins are precipitated with the aid of 5% trichloroacetic acid (TCA) and washed in order to eliminate the free radioactivity. […] The radioactivity is counted with the aid of the Wallac counter. The results are expressed as a percentage of the control according to the formula: [formula] in which: ^14CP is the average of the disintegrations per minute (dpm) of ^14C thiouracil in 3 similar wells treated with a product (P); ^3HP is the average of the corresponding ^3H leucine dpm; ^14CT is the average of the ^14C thiouracil dpm in 3 similar control wells (T); ^3HT is the average of the corresponding ^3H leucine dpm.

[2] = test system: co-cultures of normal human keratinocytes/melanocytes; experiment: Synthesis of proteins: incorporation of tritiated leucine, indicator of cytotoxicity and of proliferation; format: cell-based; settings: NHK/NHM co-culture, three days treatment
Protocol: The modulator effect on melanogenesis of the extract obtained by Protocol 2 of Example 1 was tested on co-cultures of normal human keratinocytes/melanocytes according to the method described in the Patent FR 95 06491. The rate of synthesis of melanine is evaluated by the incorporation of thiouracil labelled with C^14. The synthesis of the proteins, determined by the incorporation of tritiated leucine, is taken as an indicator of cytotoxicity and of proliferation.
The normal human keratinocytes (NHK) and the normal human melanocytes (NHM) are cultured from preputial skin. The two types of cells are proliferated and stored frozen. Eight days before the test, each of the cell types is again put into culture in KGM medium from Gibco for keratinocytes (NHK) and into M2 medium from Dr Olsson for melanocytes (NHM) (Olsson, M. J. et al., Lancet (1992) 340, 981). […]
The total radioactivity incorporated in the proteins is estimated by the incorporation of tritiated leucine. […]
After one night, the cells are rinsed in phosphate buffer. The proteins are precipitated with the aid of 5% trichloroacetic acid (TCA) and washed in order to eliminate the free radioactivity. […]
The remainder of the extract, or 950 μl, is filtered through a DEAE Filtermat filter. […] The radioactivity is counted with the aid of the Wallac counter. The results are expressed as a percentage of the control according to the formula: [formula] […]

| Structure (SMILES) | ^14CThioU. (%/control) ([1]; 1 mM) | ^3HLeu. (%/control) ([2]; 1 mM) | ^14CThioU. (%/control) ([1]; 0.5 mM) | ^3HLeu. (%/control) ([2]; 0.5 mM) |
| --- | --- | --- | --- | --- |
| N[C@@H](Cc1ccc(O)cc1)C(=O)O [tyrosine] | +118 %/control | −2 %/control |  |  |
| O=c1cc(CO)occ1O [kojic acid] |  |  | −47 %/control | +4 %/control |
